Laboratory results from US7338976B1, “Heterocyclic esters or amides for vision and memory disorders” (GPI NIL Holdings, Inc., priority 1998, dated 2008).

What was measured:
RT97 + RGC axons = assay: Protection of retinal ganglion cell axons from degeneration following optic nerve transection (Table VIII); assay type: in vivo; details: ± SEM
Description: Efficacy of representative compounds from different immunophilin ligand series in protecting retinal ganglion cell axons from degeneration following optic nerve transection is set forth in Table VIII

[1] = test system: retina (INL, GCL, ONL, OPL, PR); assay: Streptozotocin induced diabetes: retinal neovascularization and neuron loss; assay type: in vivo; details: 28 day treatment beginning 8 weeks after onset of streptozotocin diabetes
[2] = test system: retinal ganglion cells, optic nerve axons and myelin; assay: Retinal ischemia (intraocular pressure raised above arterial pressure), examined 28 days later; assay type: in vivo, adult rats
Description: Retinal ganglion cells were retrogradely labeled in adult rats by bilateral injection of fluorogold in their lateral geniculate nuclei. Labeled ganglion cells in the normal rat retina appear as white profiles against the dark background (FIG. 1A). Complete retinal ischemia was produced by infusing normal saline solution into the retinal vitreous cavity of each eye until the intraocular pressure exceeded arterial blood pressure. 28 days after the ischemic episode extensive degeneration of retinal ganglion cell was evidenced by massive reduction in the density of fluorogold labeled cells (FIG. 1B).
Optic nerves from vehicle treated cases examined 28 days after a 1 hour retinal ischemic episode are characterized by a decreased density of optic nerve axons and the appearance of numerous degenerating myelin figures (bright white filled circles).

[3] = test system: retinal ganglion cells and their axons; assay: Example 15: optic nerve transection, 28 days GPI-1046, sacrifice at 90 days; assay type: in vivo, Sprague Dawley rats; details: 10 mg/kg/day s.c. for 28 days; 90 days after transection; RT97
Description: Transection of the mammalian optic nerve results in a brief period of abortive regeneration, but the majority of axotomized neurons die and the axons from many persisting ganglion cells die back beyond the optic nerve head.

[4] = test system: retinal ganglion cells and optic nerve axons; assay: Optic nerve transection vision loss model, 14 or 28 day treatment, sacrifice 90 days after transection; assay type: in vivo, Sprague Dawley rats; details: 28 days treatment; 90 days after ONT; cross sectional area × myelin density
Description: All eyes and optic nerves stumps were removed.

[5] = Clearance (Table VIII comments); assay type: in vitro ADME

Compound	RT97 +RGC axon density 14 days after ON transection (% ON axons rescued) (RT97 + RGC axons)	further results
O=C(SCCCc1ccccc1)[C@@H]1CCCN1S(=O)(=O)Cc1ccccc1 [C]	60.4%±3.1% SEM	
CCC(C)(C)C(=O)C(=O)N1CCCC[C@H]1C(N)=O [H]	30.3%±8.0% SEM	
CCC(C)(C)C(=O)C(=O)N1CCC[C@H]1C(=O)OCCCc1cccnc1 [GPI 1046, 3-(3-pyridyl)-1-propyl (2s)-1-(3,3-dimethyl-1,2-dioxopentyl)-2-pyrrolidinecarboxylate]	60.5%±3.9 SEM	neovascularization in PR, ONL, OPL and INL [1]: reduced neovascularization; protection of retinal ganglion cells after retinal ischemia ([2]; 10 mg/kg s.c. 1 hour prior and 10 mg/kg/day for next four days, 28 days after ischemia, fluorogold labeled cells): noticeable protection of a large proportion of the vulnerable ganglion cell population; protection of optic nerve axons after retinal ischemia ([2]; same cases, toluidine blue staining, 28 days after 1 hour ischemia): protected the majority of optic nerve exons from degeneration; preservation of axons in the proximal stump [3]: preserved the axons of virtually all protected neurons; Distal optic nerve myelin basic protein Density: myelin preservation [4]: ~99 % myelin preservation
CCC(C)(C)C(=O)C(=O)N1CCC[C@H]1C(=O)O [L]	7.8%±3.0% SEM	Clearance [5]: 12.5 µL/min
O=C(OCCCc1cccnc1)[C@@H]1CCCN1C(=S)NC1CCCCC1 [I]	23.8%±5.3 SEM	
CCC(C)(C)C(=O)C(=O)N1CCC[C@H]1C(=O)SCCC(c1ccccc1)c1ccccc1 [M]	−6.3%+3.9% SEM	
O=C(SCCCc1ccccc1)[C@@H]1CCCN1C(=O)NC12CC3CC(CC(C3)C1)C2 [B]	100.0%±5.2% SEM	
CCC(C)(C)C(=O)C(=O)N1CCC[C@H]1C(=O)CCCCc1cccnc1 [J]	15.8%±4.8% SEM	
CCC(C)(C)C(=O)C(=O)N1CCCC[C@H]1C(=O)O [G]	34.0%±4.8% SEM	
